Blank lines part the entries; values can stand above or below the compound they belong to.
Columns and labels:
CDK5/p25 = biological target: T1, CDK5/p25 (Homo sapiens, UniProt Q00535); test: Z'-LYTE kinase assay, CDK5/p25; assay type: biochemical
T1 construct: purchased Life Technologies (Grand Island, N.Y.), Z'-LYTE kinase assay service
Experimental: (§1) Compounds of the invention were assayed for activity against a variety of different kinases at Life Technologies™ (Grand Island, N.Y.) using their commercially available ADAPTA® (for CDK7, CDK9/cyclin T1, and IRAK1 kinases), Z′-LYTE® (for CDK1, CDK2, CDK5/p25, CDK5/p35, JNK1 and JNK2 kinases) and LANTHASCREEN EU® (for CDK8, CDK9/cyclin K and MLK3) kinase assay services. Test compounds were tested at 100 nM and 1 μM final concentrations in 1% DMSO against all kinases except CDK7. For CDK7, test compounds were tested at concentrations ranging from 10 μM down to 0.514 nM in a series of 3-fold serial dilutions. Details of these assays, including substrates used for each kinase, are available on the Life Technologies web site (www.lifetechnologies.com/). The results of the assay are shown below in Tables 2A and 2B. […] The co-factors used for each kinase in the assays were as follows CDK1—cyclin B; CDK2—cyclin A; CDK5—p25 or p35 as indicated; CDK7—cyclin H and MNAT1; CDK8—cyclin C; CDK9—cyclin K or cyclin T1 as indicated; IRAK1—Histone H3 (1-20) peptide; JNK1—none required; JNK2—none required; MLK3—none required.

MLK3 = biological target: T2, MLK3 (Homo sapiens, UniProt Q16584); test: LANTHASCREEN EU kinase assay, MLK3; assay type: binding; details: calculated; read-out: C50 against MLK3
T2 construct: purchased Life Technologies (Grand Island, N.Y.), LA[…] kinase assay service
Experimental: as §1, with “Test compounds were tested at 100 nM and 1 μM final concentrations in 1% DMSO against all kinases except CDK7.” left out

Jurkat cells = test: Inhibition of proliferation of Jurkat cells ([…]-GLO, 72 hour); assay type: cell-based; details: Homo sapiens
Experimental: Representative compounds of the invention were tested at different concentrations (from 10 μM to […]; 0.5 log serial dilutions) for their ability to inhibit the proliferation of Jurkat cells. Cells were grown in RPMI 1640+10% FBS+1% Glutamax supplemented with FBS (Life Technologies) and 100 U.mL^−1 penicillin, 100 μg·mL^−1 streptomycin (Invitrogen) and cultured at 37° C. in a humidified chamber in the presence of 5% CO2. Proliferation assays were conducted over a 72 hour time period. […]-GLO® (Promega Corporation, Madison, Wis. USA) was used to assess the anti-proliferative effects of the compounds following manufacturer's directions and utilizing the reagents supplied with the […]-GLO® kit. In this table, “A” represents an IC50 of less than 500 nM; “B” an IC50 of between 500 nM and 5 μM; and “C” an IC50 of greater than 5 μM.

CDK7 = biological target: T3, CDK7 (Homo sapiens, UniProt P50613); test: ADAPTA kinase assay, CDK7 (Life Technologies); assay type: biochemical; details: co-factors cyclin H and MNAT1; 10 μM down to 0.514 nM, 3-fold serial dilutions; read-out: CDK7 calculated IC50
T3 construct: purchased Life Technologies (Grand Island, N.Y.), ADAPTA kinase assay service

CDK1 = biological target: T4, CDK1 (Homo sapiens, UniProt P06493); test: Z'-LYTE kinase assay, CDK1; assay type: biochemical; details: cyclin B co-factor
T4 construct: purchased Life Technologies (Grand Island, N.Y.), Z'-LYTE kinase assay service
T4 sequence (P06493 whole entry): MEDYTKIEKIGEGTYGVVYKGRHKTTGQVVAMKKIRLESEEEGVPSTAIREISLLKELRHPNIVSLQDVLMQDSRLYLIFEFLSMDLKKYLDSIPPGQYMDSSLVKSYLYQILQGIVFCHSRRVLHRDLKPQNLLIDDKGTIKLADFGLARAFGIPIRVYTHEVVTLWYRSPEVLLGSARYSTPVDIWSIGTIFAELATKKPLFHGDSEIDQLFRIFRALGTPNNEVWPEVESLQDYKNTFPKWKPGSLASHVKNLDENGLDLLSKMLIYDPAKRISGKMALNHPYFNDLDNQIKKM
T4 sequence (P14635 whole entry partner): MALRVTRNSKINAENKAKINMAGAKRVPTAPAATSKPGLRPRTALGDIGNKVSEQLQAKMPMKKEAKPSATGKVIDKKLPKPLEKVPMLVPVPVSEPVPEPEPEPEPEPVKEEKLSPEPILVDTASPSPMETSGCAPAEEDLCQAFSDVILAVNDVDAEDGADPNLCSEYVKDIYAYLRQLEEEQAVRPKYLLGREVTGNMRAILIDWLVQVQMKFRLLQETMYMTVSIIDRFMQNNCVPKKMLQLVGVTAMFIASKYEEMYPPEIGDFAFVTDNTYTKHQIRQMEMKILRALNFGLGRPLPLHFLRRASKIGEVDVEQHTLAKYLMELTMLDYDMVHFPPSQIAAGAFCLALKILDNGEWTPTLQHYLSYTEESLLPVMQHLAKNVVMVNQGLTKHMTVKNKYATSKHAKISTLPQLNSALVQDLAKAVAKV
Experimental: as §1

CDK2 = biological target: T5, CDK2 (Homo sapiens, UniProt P24941); test: Z'-LYTE kinase assay, CDK2; assay type: biochemical; details: cyclin A co-factor
T5 construct: purchased Life Technologies (Grand Island, N.Y.), Z'-LYTE kinase assay service
Experimental: as §1

CDK5/p35 = biological target: T6, CDK5/p35 (Homo sapiens, UniProt Q00535); test: Z'-LYTE kinase assay, CDK5/p35; assay type: biochemical; details: p35 co-factor
T6 construct: purchased Life Technologies (Grand Island, N.Y.), Z'-LYTE kinase assay service
T6 sequence (Q00535 whole entry): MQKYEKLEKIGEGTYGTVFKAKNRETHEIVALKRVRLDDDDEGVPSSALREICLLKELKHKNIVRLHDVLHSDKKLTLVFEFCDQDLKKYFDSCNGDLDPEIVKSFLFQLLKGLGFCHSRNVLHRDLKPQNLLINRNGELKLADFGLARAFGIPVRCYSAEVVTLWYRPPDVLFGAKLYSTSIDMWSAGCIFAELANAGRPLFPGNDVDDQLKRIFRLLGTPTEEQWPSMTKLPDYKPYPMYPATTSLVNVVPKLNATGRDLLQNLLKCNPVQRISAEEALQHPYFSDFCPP
T6 sequence (Q15078 whole entry partner): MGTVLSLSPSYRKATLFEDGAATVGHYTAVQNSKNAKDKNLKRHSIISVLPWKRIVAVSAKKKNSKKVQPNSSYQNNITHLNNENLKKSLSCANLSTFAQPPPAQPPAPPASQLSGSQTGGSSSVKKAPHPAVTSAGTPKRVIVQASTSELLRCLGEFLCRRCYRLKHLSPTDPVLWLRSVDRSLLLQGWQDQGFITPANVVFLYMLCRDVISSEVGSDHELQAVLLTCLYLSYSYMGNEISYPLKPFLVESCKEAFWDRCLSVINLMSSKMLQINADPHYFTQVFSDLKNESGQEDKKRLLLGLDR
Experimental: as §1

CDK8 = biological target: T7, CDK8 (Homo sapiens, UniProt P49336); test: LANTHASCREEN EU kinase assay, CDK8; assay type: binding; details: cyclin C co-factor
T7 construct: purchased Life Technologies (Grand Island, N.Y.), LA[…] kinase assay service
T7 sequence (P49336 whole entry): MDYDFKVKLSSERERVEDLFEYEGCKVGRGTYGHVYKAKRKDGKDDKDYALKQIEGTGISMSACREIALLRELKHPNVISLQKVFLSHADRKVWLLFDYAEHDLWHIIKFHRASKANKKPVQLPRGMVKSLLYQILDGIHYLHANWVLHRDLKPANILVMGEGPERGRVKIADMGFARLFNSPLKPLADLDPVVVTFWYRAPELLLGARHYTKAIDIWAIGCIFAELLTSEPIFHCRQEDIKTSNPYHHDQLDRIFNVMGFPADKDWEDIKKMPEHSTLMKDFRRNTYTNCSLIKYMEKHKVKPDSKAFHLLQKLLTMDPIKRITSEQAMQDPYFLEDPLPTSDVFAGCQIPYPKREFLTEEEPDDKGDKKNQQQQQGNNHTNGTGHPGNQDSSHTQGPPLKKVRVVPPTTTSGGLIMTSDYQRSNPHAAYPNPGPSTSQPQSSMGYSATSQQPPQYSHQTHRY
T7 sequence (P24863 whole entry partner): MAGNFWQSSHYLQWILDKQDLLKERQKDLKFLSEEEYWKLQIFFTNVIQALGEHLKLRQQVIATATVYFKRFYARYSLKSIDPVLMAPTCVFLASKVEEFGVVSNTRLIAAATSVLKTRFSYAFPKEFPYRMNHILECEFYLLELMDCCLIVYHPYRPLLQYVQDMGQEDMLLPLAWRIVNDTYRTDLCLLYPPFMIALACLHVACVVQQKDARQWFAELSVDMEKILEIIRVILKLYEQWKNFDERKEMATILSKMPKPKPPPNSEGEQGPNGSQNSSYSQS
Experimental: as §1

CDK9/cyclin T1 = biological target: T8, CDK9/cyclin T1 (Homo sapiens, UniProt P50750); test: ADAPTA kinase assay, CDK9/cyclin T1; assay type: biochemical; details: cyclin T1 co-factor
T8 construct: purchased Life Technologies (Grand Island, N.Y.), ADAPTA kinase assay service
T8 sequence (P50750 whole entry): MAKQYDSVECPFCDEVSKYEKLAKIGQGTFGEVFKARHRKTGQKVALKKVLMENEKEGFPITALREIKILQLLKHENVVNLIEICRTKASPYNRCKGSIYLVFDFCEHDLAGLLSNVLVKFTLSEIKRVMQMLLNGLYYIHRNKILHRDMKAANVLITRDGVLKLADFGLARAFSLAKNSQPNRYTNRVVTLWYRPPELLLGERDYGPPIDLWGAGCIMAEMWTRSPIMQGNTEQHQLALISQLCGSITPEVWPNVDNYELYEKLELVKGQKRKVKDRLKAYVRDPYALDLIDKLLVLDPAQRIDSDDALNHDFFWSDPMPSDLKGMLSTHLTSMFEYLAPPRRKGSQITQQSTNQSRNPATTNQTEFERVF
T8 sequence (O60563 whole entry partner): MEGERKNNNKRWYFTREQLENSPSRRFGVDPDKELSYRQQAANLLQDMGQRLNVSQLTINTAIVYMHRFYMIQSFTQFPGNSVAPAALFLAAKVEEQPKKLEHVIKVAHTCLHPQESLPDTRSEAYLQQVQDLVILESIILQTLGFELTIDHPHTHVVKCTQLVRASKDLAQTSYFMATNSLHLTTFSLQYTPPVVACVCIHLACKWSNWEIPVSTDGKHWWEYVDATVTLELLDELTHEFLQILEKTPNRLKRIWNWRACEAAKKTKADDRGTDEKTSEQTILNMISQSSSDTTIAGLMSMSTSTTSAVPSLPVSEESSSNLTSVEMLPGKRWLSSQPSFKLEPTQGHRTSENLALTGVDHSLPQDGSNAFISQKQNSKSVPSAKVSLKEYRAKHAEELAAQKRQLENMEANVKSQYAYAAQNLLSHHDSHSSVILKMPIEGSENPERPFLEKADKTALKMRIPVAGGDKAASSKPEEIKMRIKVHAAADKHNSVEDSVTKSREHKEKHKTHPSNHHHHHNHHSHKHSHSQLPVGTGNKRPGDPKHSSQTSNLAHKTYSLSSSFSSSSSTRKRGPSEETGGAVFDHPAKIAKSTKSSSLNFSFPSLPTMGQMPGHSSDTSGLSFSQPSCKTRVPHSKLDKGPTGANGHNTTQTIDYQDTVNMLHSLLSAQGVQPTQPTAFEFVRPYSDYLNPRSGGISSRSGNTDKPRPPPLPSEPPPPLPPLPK
Experimental: as §1

CDK9/cyclin K = biological target: T9, CDK9/cyclin K (Homo sapiens, UniProt P50750); test: LANTHASCREEN EU kinase assay, CDK9/cyclin K; assay type: binding; details: cyclin K co-factor
T9 construct: purchased Life Technologies (Grand Island, N.Y.), LANTHASCREEN EU kinase assay service
Experimental: as §1

JNK1 = biological target: T10, JNK1 (Homo sapiens, UniProt P45983); test: Z'-LYTE kinase assay, JNK1; assay type: biochemical
T10 construct: purchased Life Technologies (Grand Island, N.Y.), Z'-LYTE kinase assay service
T10 sequence (P45983 whole entry): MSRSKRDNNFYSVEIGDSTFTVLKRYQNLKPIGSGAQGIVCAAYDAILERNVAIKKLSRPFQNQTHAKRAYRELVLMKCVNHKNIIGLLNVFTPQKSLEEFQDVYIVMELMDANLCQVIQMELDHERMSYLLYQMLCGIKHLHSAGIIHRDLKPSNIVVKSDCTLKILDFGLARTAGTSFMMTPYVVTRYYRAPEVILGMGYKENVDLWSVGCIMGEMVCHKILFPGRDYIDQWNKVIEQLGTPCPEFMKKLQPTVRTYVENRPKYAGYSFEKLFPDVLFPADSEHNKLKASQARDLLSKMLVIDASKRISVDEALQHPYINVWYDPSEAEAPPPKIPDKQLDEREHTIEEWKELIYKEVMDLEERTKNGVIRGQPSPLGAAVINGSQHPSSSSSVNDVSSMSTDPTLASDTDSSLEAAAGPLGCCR
Experimental: as §1

JNK2 = biological target: T11, JNK2 (Homo sapiens, UniProt P45984); test: Z'-LYTE kinase assay, JNK2; assay type: biochemical
T11 construct: purchased Life Technologies (Grand Island, N.Y.), Z'-LYTE kinase assay service
T11 sequence (P45984 whole entry): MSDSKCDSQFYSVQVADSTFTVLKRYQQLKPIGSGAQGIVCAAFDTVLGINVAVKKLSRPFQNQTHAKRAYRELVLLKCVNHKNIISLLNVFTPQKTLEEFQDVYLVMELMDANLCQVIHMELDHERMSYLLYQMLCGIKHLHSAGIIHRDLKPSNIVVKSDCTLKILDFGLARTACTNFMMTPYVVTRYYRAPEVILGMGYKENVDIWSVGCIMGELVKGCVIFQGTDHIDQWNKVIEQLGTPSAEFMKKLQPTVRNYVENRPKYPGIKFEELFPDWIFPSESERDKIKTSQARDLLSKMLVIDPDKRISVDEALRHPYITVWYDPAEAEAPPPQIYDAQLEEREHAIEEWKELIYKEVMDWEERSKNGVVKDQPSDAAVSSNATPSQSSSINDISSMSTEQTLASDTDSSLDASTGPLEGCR
Experimental: as §1

T1 sequence (Q00535 whole entry): as the sequence (Q00535 whole entry) above
T1 sequence (Q15078 99-307 partner limits assumed): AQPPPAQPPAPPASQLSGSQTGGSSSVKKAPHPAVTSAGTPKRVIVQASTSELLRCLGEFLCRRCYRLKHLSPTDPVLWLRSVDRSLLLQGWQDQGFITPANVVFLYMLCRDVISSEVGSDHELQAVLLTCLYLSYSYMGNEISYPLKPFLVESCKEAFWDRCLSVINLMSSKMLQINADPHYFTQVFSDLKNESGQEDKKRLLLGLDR

- IC50 (CDK5/p25; p25 as co-factor, calculated, read-out: IC50 against CDK5): 3000 nM
- IC50 (MLK3): 3200 nM
- IC50 (Jurkat cells): < 500 nM
SMILES: CN(C)C/C=C/C(=O)Nc1ccc(C(=O)N2CCCC(Nc3ncc(Cl)c(-c4c[nH]c5ccccc45)n3)C2)cc1 (stereo not drawn) [Compound 100, (E)-N-(4-(3-(5-chloro-4-(1H-indol-3-yl)pyrimidin-2-ylamino)piperidine-1-carbonyl)phenyl)-4-(dimethylamino)but-2-enamide]

- IC50 (CDK7): 100 to 1000 nM
- inhibition at 0.1 µM (CDK1; compound tested at 100 nM): < 50%
- inhibition at 1 µM (CDK1; compound tested at 1 μM): < 50%
- inhibition at 0.1 µM (CDK2; compound tested at 100 nM): < 50%
- inhibition at 1 µM (CDK2; compound tested at 1 μM): < 50%
- inhibition at 0.1 µM (CDK5/p25; compound tested at 100 nM, p25 co-factor): < 50%
- inhibition at 1 µM (CDK5/p25; compound tested at 1 μM, p25 co-factor): < 50%
- inhibition at 0.1 µM (CDK5/p35; compound tested at 100 nM): < 50%
- inhibition at 1 µM (CDK5/p35; compound tested at 1 μM): < 50%
- inhibition at 0.1 µM (CDK8; compound tested at 100 nM): < 50%
- inhibition at 1 µM (CDK8; compound tested at 1 μM): < 50%
- inhibition at 0.1 µM (CDK9/cyclin T1; compound tested at 100 nM): < 50%
- inhibition at 1 µM (CDK9/cyclin T1; compound tested at 1 μM): < 50%
- inhibition at 0.1 µM (CDK9/cyclin K; compound tested at 100 nM): < 50%
- inhibition at 1 µM (CDK9/cyclin K; compound tested at 1 μM): < 50%
- inhibition at 0.1 µM (JNK1; compound tested at 100 nM): 50 to 70%
- inhibition at 1 µM (JNK1; compound tested at 1 μM): > 70%
- inhibition at 0.1 µM (JNK2; compound tested at 100 nM): < 50%
- inhibition at 1 µM (JNK2; compound tested at 1 μM): > 70%
- IC50 (Jurkat cells): 500 to 5000 nM
SMILES: CN(C)C/C=C/C(=O)Nc1ccc(C(=O)N2CCCC(CNc3ncc(Cl)c(-c4c[nH]c5ccccc45)n3)C2)cc1 (stereo not drawn) [Compound 101, (E)-N-(4-(3-((5-chloro-4-(1H-indol-3-yl)pyrimidin-2-ylamino)methyl)piperidine-1-carbonyl)phenyl)-4-(dimethylamino)but-2-enamide]

- IC50 (CDK7): 100 to 1000 nM
SMILES: CN(C)C/C=C/C(=O)Nc1ccc(NC(=O)N2CCCC(Nc3ncc(Cl)c(-c4c[nH]c5ccccc45)n3)C2)cc1 (stereo not drawn) [Compound 102]

From patent publication US11040957B2, “Heteroaromatic compounds useful for the treatment of proliferative diseases” (Syros Pharmaceuticals, Inc., priority 2013, dated 2021)
